{"source": "patent US10968218B2", "about": "“Tetrahydropyridopyrimidines for the treatment and prophylaxis of hepatitis B virus infection” (Hoffmann-La Roche Inc., priority 2016, dated 2021)", "tested_on": "HBsAg", "test": "HBsAg assay (CLIA of secreted HBsAg in HepG2.2.15 culture supernatant)", "format": "cell-based, HBV", "settings": "Hepatitis B virus", "method": "HepG2.2.15 cells (Acs et al. Proc Natl Acad Sci USA, 84, (1987), 4641-4), a constitutively HBV-expressing cell line were cultured in DMEM+Glutamax-I medium (Invitrogen, Carlsbad, Calif., USA), supplemented with 10% fetal bovine serum (Invitrogen) and G418 (Invitrogen) at a final concentration of 200 mg/L and maintained in 5% CO2 at 37° C.\nHepG2.2.15 cells were seeded in duplicate into white, 96-well plates at 1.5×10^4 cells/well. The cells were treated with a three-fold serial dilution series of the compounds in DMSO. The final DMSO concentration in all wells was 1% and DMSO was used as no drug control.\nThe HBsAg chemiluminescence immunoassay (CLIA) kit (Autobio Diagnostics Co., Zhengzhou, China, Catalog number: CL0310-2) was used to measure the levels of secreted HBV antigens semi-quantitatively. For the detection 50 μL/well culture supernatant was used and HBsAg was quantified using HBsAg chemiluminescence immunoassay (CLIA) kit (Autobio Diagnostics Co., Zhengzhou, China, Catalog number: CL0310-2), 50 μL of the supernatant was transferred to the CLIA assay plate and 50 μL of enzyme conjugate reagent was added into each well. The plates were sealed and gently agitated for 1 hour at room temperature. The supernatant-enzyme-mixture was discarded and wells were washed 6 times with 300 μL of PBS. The residual liquid was removed by plating the CLIA plate right side down on absorbent tissue paper. 25 μL of substrates A and B were added to each well. Luminance was measured using a luminometer (Mithras LB 940 Multimode Microplate Reader) after 10 minutes incubation. Dose-response curves were generated and the IC50 value was extrapolated by using the E-WorkBook Suite (ID Business Solutions Ltd., Guildford, UK). The IC50 was defined as the compound concentration at which HBsAg secretion was reduced by 50% compared to the no drug control.\nThe compounds according to formula I were tested for their capacity to inhibit HBsAg as described herein."}
{"compound": "CC1c2cnc(-c3cscn3)nc2CCN1c1cc(F)nc(N2CCCC2)c1", "note": "(centres unmarked) [Example 17, 4-[6-(2-fluoro-6-pyrrolidin-1-yl-4-pyridyl)-5-methyl-7,8-dihydro-5H-pyrido[4,3-d]pyrimidin-2-yl]thiazole]", "values": [{"measurement": "IC50", "value": 0.017, "unit": "µM"}]}
{"compound": "CC1c2cnc(-c3cscn3)nc2CCN1c1cc(F)nc(OCCCN2CCCC2=O)c1", "note": "(centres unmarked) [Example 40, 1-[3-[[6-fluoro-4-(5-methyl-2-thiazol-4-yl-7,8-dihydro-5H-pyrido[4,3-d]pyrimidin-6-yl)-2-pyridyl]oxy]propyl]pyrrolidin-2-one]", "values": [{"measurement": "IC50", "value": 0.222, "unit": "µM"}]}
{"compound": "COC1CCN(c2cc(F)nc(N3CCc4nc(-c5cscn5)ncc4C3C)c2)C1", "note": "(centres unmarked) [Example 24, 4-[6-[6-fluoro-4-(3-methoxypyrrolidin-1-yl)-2-pyridyl]-5-methyl-7,8-dihydro-5H-pyrido[4,3-d]pyrimidin-2-yl]thiazole]", "values": [{"measurement": "IC50", "value": 0.023, "unit": "µM"}]}
{"compound": "CC1c2cnc(-c3cscn3)nc2CCN1c1cc(F)nc(OCC(F)F)c1", "note": "(centres unmarked) [Example 34, 4-[6-[2-(2,2-difluoroethoxy)-6-fluoro-4-pyridyl]-5-methyl-7,8-dihydro-5H-pyrido[4,3-d]pyrimidin-2-yl]thiazole]", "values": [{"measurement": "IC50", "value": 0.14, "unit": "µM"}]}
{"compound": "CC1c2cnc(-c3cscn3)nc2CCN1c1cc(F)nc(OCC2CC2)c1", "note": "(centres unmarked) [Example 31, 4-[6-[2-(cyclopropylmethoxy)-6-fluoro-4-pyridyl]-5-methyl-7,8-dihydro-5H-pyrido[4,3-d]pyrimidin-2-yl]thiazole]", "values": [{"measurement": "IC50", "value": 0.117, "unit": "µM"}]}
{"compound": "CC1c2cnc(-c3cscn3)nc2CCN1c1cc(F)cc(OCC(F)F)n1", "note": "(centres unmarked) [Example 36, 4-[6-[6-(2,2-difluoroethoxy)-4-fluoro-2-pyridyl]-5-methyl-7,8-dihydro-5H-pyrido[4,3-d]pyrimidin-2-yl]thiazole]", "values": [{"measurement": "IC50", "value": 0.112, "unit": "µM"}]}
{"compound": "COc1cc(F)nc(N2CCc3nc(-c4cnc(C)s4)ncc3C2C)c1", "note": "(centres unmarked) [Example 16, 5-[6-(6-fluoro-4-methoxy-2-pyridyl)-5-methyl-7,8-dihydro-5H-pyrido[4,3-d]pyrimidin-2-yl]-2-methyl-thiazole]", "values": [{"measurement": "IC50", "value": 25.8, "unit": "µM"}]}
{"compound": "CC1c2cnc(-c3cscn3)nc2CCN1c1cc(OCCCN2CCCC2=O)cc(F)n1", "note": "(centres unmarked) [Example 41, 1-[3-[[2-fluoro-6-(5-methyl-2-thiazol-4-yl-7,8-dihydro-5H-pyrido[4,3-d]pyrimidin-6-yl)-4-pyridyl]oxy]propyl]pyrrolidin-2-one]", "values": [{"measurement": "IC50", "value": 0.102, "unit": "µM"}]}
{"compound": "COc1cc(F)nc(N2CCc3nc(-n4nccn4)ncc3C2C)c1", "note": "(centres unmarked) [Example 3, 6-(6-Fluoro-4-methoxy-2-pyridyl)-5-methyl-2-(triazol-2-yl)-7,8-dihydro-5H-pyrido[4,3-d]pyrimidine]", "values": [{"measurement": "IC50", "value": 0.666, "unit": "µM"}]}
{"compound": "COc1cc(F)nc(N2CCc3nc(-c4cn(Cc5ccccc5)cn4)ncc3C2C)c1", "note": "(centres unmarked) [Example 10, 2-(1-Benzylimidazol-4-yl)-6-(6-fluoro-4-methoxy-2-pyridyl)-5-methyl-7,8-dihydro-5H-pyrido[4,3-d]pyrimidine]", "values": [{"measurement": "IC50", "value": 0.421, "unit": "µM"}]}
{"compound": "CC1c2cnc(-c3cscn3)nc2CCN1c1cc(OCC(F)F)cc(F)n1", "note": "(centres unmarked) [Example 35, 4-[6-[4-(2,2-difluoroethoxy)-6-fluoro-2-pyridyl]-5-methyl-7,8-dihydro-5H-pyrido[4,3-d]pyrimidin-2-yl]thiazole]", "values": [{"measurement": "IC50", "value": 0.039, "unit": "µM"}]}
{"compound": "COc1cc(F)nc(N2CCc3nc(-n4ccnn4)ncc3C2C)c1", "note": "(centres unmarked) [Example 2, 6-(6-Fluoro-4-methoxy-2-pyridyl)-5-methyl-2-(triazol-1-yl)-7,8-dihydro-5H-pyrido[4,3-d]pyrimidine]", "values": [{"measurement": "IC50", "value": 22.9, "unit": "µM"}]}
{"compound": "CC1c2cnc(-c3cscn3)nc2CCN1c1cc(OCC2CC2)cc(F)n1", "note": "(centres unmarked) [Example 32, 4-[6-[4-(cyclopropylmethoxy)-6-fluoro-2-pyridyl]-5-methyl-7,8-dihydro-5H-pyrido[4,3-d]pyrimidin-2-yl]thiazole]", "values": [{"measurement": "IC50", "value": 0.039, "unit": "µM"}]}
{"compound": "COc1cc(F)nc(N2CCc3nc(-c4nccn4C)ncc3C2C)c1", "note": "(centres unmarked) [Example 7, 6-(6-Fluoro-4-methoxy-2-pyridyl)-5-methyl-2-(1-methylimidazol-2-yl)-7,8-dihydro-5H-pyrido[4,3-d]pyrimidine]", "values": [{"measurement": "IC50", "value": 16.7, "unit": "µM"}]}
{"compound": "CC1c2cnc(-c3cscn3)nc2CCN1c1cc(F)cc(OCC2CC2)n1", "note": "(centres unmarked) [Example 33, 4-[6-[6-(cyclopropylmethoxy)-4-fluoro-2-pyridyl]-5-methyl-7,8-dihydro-5H-pyrido[4,3-d]pyrimidin-2-yl]thiazole]", "values": [{"measurement": "IC50", "value": 0.212, "unit": "µM"}]}
{"compound": "COc1cc(F)nc(N2CCc3nc(-n4cccn4)ncc3C2C)c1", "note": "(centres unmarked) [Example 9, 6-(6-Fluoro-4-methoxy-2-pyridyl)-5-methyl-2-pyrazol-1-yl-7,8-dihydro-5H-pyrido[4,3-d]pyrimidine]", "values": [{"measurement": "IC50", "value": 0.095, "unit": "µM"}]}
{"compound": "CC1c2cnc(-c3cscn3)nc2CCN1c1cc(F)cc(N2CCN(S(C)(=O)=O)CC2)n1", "note": "(centres unmarked) [Example 22, 4-[6-[4-fluoro-6-(4-methylsulfonylpiperazin-1-yl)-2-pyridyl]-5-methyl-7,8-dihydro-5H-pyrido[4,3-d]pyrimidin-2-yl]thiazole]", "values": [{"measurement": "IC50", "value": 0.066, "unit": "µM"}]}
{"compound": "CC1c2cnc(-c3cscn3)nc2CCN1c1cc(N(C)C)cc(F)n1", "note": "(centres unmarked) [Example 11, 2-Fluoro-N,N-dimethyl-6-(5-methyl-2-thiazol-4-yl-7,8-dihydro-5H-pyrido[4,3-d]pyrimidin-6-yl)pyridin-4-amine]", "values": [{"measurement": "IC50", "value": 0.026, "unit": "µM"}]}
{"compound": "COc1cc(F)nc(N2CCc3nc(-c4nccs4)ncc3C2C)c1", "note": "(centres unmarked) [Example 6, 2-[6-(6-Fluoro-4-methoxy-2-pyridyl)-5-methyl-7,8-dihydro-5H-pyrido[4,3-d]pyrimidin-2-yl]thiazole]", "values": [{"measurement": "IC50", "value": 0.118, "unit": "µM"}]}
{"compound": "CC1c2cnc(-c3cscn3)nc2CCN1c1cc(F)nc(N2CCNC(=O)C2)c1", "note": "(centres unmarked) [Example 28, 4-[6-fluoro-4-(5-methyl-2-thiazol-4-yl-7,8-dihydro-5H-pyrido[4,3-d]pyrimidin-6-yl)-2-pyridyl]piperazin-2-one]", "values": [{"measurement": "IC50", "value": 0.042, "unit": "µM"}]}
{"compound": "COc1cc(F)nc(N2CCc3nc(-c4ncsc4C)ncc3C2C)c1", "note": "(centres unmarked) [Example 42, 4-[6-(6-Fluoro-4-methoxy-2-pyridyl)-5-methyl-7,8-dihydro-5H-pyrido[4,3-d]pyrimidin-2-yl]-5-methyl-thiazole]", "values": [{"measurement": "IC50", "value": 0.282, "unit": "µM"}]}
{"compound": "CC1c2cnc(-c3cscn3)nc2CCN1c1cc(N2CCNC(=O)C2)cc(F)n1", "note": "(centres unmarked) [Example 29, 4-[2-fluoro-6-(5-methyl-2-thiazol-4-yl-7,8-dihydro-5H-pyrido[4,3-d]pyrimidin-6-yl)-4-pyridyl]piperazin-2-one]", "values": [{"measurement": "IC50", "value": 0.034, "unit": "µM"}]}
{"compound": "CC1c2cnc(-c3cscn3)nc2CCN1c1cc(F)cc(N2CCCC2)n1", "note": "(centres unmarked) [Example 19, 4-[6-(4-fluoro-6-pyrrolidin-1-yl-2-pyridyl)-5-methyl-7,8-dihydro-5H-pyrido[4,3-d]pyrimidin-2-yl]thiazole]", "values": [{"measurement": "IC50", "value": 0.175, "unit": "µM"}]}
{"compound": "CC1c2cnc(-c3cscn3)nc2CCN1c1cc(F)cc(OCC2CCOC2)n1", "note": "(centres unmarked) [Example 39, 4-[6-[4-fluoro-6-(tetrahydrofuran-3-ylmethoxy)-2-pyridyl]-5-methyl-7,8-dihydro-5H-pyrido[4,3-d]pyrimidin-2-yl]thiazole]", "values": [{"measurement": "IC50", "value": 0.139, "unit": "µM"}]}
{"compound": "CC1c2cnc(-c3cscn3)nc2CCN1c1cc(N2CCN(S(C)(=O)=O)CC2)cc(F)n1", "note": "(centres unmarked) [Example 21, 4-[6-[6-fluoro-4-(4-methylsulfonylpiperazin-1-yl)-2-pyridyl]-5-methyl-7,8-dihydro-5H-pyrido[4,3-d]pyrimidin-2-yl]thiazole]", "values": [{"measurement": "IC50", "value": 0.016, "unit": "µM"}]}
{"compound": "CC1c2cnc(-c3cscn3)nc2CCN1c1cc(N2CCCC2)cc(F)n1", "note": "(centres unmarked) [Example 18, 4-[6-(6-fluoro-4-pyrrolidin-1-yl-2-pyridyl)-5-methyl-7,8-dihydro-5H-pyrido[4,3-d]pyrimidin-2-yl]thiazole]", "values": [{"measurement": "IC50", "value": 0.016, "unit": "µM"}]}
